Data: US20240150358A1, “PURINES AND METHODS OF THEIR USE” (Kineta, Inc., priority 2020, published 2024)
pIC50: −log10 of the molar value. Where two headings read alike, the source gives them in different places.

What was measured:
[1] = test system: PIKFYVE TDP-43 yeast strain; assay: Propidium iodide flow cytometry viability assay, PIKFYVE TDP-43 yeast strain; format: cell-based; conditions: for PIKfyve TDP-43 (active/inactive): yeast viability, 15 μM to 0.11 μM; for pIC50: reduction in PI-positive cells, values plotted in FIG. 7
Description: (§1) Generation of TDP-43 yeast model expressing human PIKfyve. Human PIKFYVE (“entry clone”) was cloned into pAG416GPDccdB (“destination vector”) according to standard Gateway cloning protocols (Invitrogen, Life Technologies). The resulting pAG416GPD-PIKFYVE plasmids were amplified in E. coli and plasmid identity confirmed by restriction digest and Sanger sequencing. Lithium acetate/polyethylene glycol-based transformation was used to introduce the above PIKFYVE plasmid into a BY4741 yeast strain auxotrophic for the ura3 gene and deleted for two transcription factors that regulate the xenobiotic efflux pumps, a major efflux pump, and FAB1, the yeast ortholog of PIKFYVE (MATa, snq2::KILeu2; pdr3::Klura3; pdr1::NATMX; fab1::G418R, his3; leu2; ura3; met15; LYS2+) (FIG. 2). Transformed yeast were plated on solid agar plates with complete synthetic media lacking uracil (CSM-ura) and containing 2% glucose. Individual colonies harboring the control or PIKFYVE TDP-43 plasmids were recovered. A plasmid containing wild-type TDP-43 under the transcriptional control of the GAL1 promoter and containing the hygromycin-resistance gene as a selectable marker was transformed into the fab/::G418R pAG416GPD-PIKFYVE yeast strain (FIG. 1). Transformed yeast were plated on CSM-ura containing 2% glucose and […] after overnight recovery in media lacking antibiotic. Multiple independent isolates were further evaluated for cytotoxicity and TDP-43 expression levels.
(§2) Viability Assay. A control yeast strain with the wild-type yeast FAB1 gene and TDP-43 (“FAB1 TDP-43”, carries empty pAG416 plasmid), and the “PIKFYVE TDP-43” yeast strain, were assessed for toxicity using a propidium iodide viability assay. Both yeast strains were transferred from solid CSM-ura/2% glucose agar plates into 3 mL of liquid CSM-ura/2% glucose media for 6-8 hours at 30° C. with aeration. Yeast cultures were then diluted to an optical density at 600 nm wavelength (OD600) of 0.005 in 3 mL of CSM-ura/2% raffinose and grown overnight at 30° C. with aeration to an OD600 of 0.3-0.8. Log-phase overnight cultures were diluted to OD600 of 0.005 in CSM-ura containing either 2% raffinose or galactose and 150 μL dispensed into each well of a flat bottom 96-well plates. Compounds formulated in 100% dimethyl sulfoxide (DMSO) were serially diluted in DMSO and 1.5 μL diluted compound transferred to the 96-well plates using a multichannel pipet. Wells containing DMSO alone were also evaluated as controls for compound effects. Tested concentrations ranged from 15 μM to 0.11 μM. Cultures were immediately mixed to ensure compound distribution and covered plates incubated at 30° C. for 24 hours in a stationary, humified incubator.
(§3) Upon the completion of incubation, cultures were assayed for viability using propidium iodide (PI) to stain for dead/dying cells. A working solution of PI was made where, for each plate, 1 μL of 10 mM PI was added to 10 mL of CSM-ura (raffinose or galactose). The final PI solution ([…]) was dispensed into each well of a new round bottom 96-well plate. The overnight 96-well assay plate was then mixed with a multichannel pipet and 50 μL transferred to the PI-containing plate. This plate was then incubated for 30 minutes at 30° C. in the dark. A benchtop flow cytometer (Miltenyi MACSquant) was then used to assess red fluorescence (B2 channel), forward scatter, and side scatter (with following settings: gentle mix, high flow rate, fast measurement, 10,000 events). Intensity histograms were then gated for “PI-positive” or “PI-negative” using the raffinose and galactose cultures treated with DMSO as controls. The DMSO controls for raffinose or galactose-containing cultures were used to determine the window of increased cell death and this difference set to 100. All compounds were similarly gated and then compared to this maximal window to establish the percent reduction in PI-positive cells.

FAB1 TDP-43 yeast strain = assay: Propidium iodide flow cytometry viability assay, control FAB1 TDP-43 yeast strain; format: cell-based; conditions: 15 μM to 0.11 μM
Description: as §1, §2, §3

[2] = molecular target: full-length human PIKFYVE (Homo sapiens (Human), UniProt Q9Y2I7, L932S/Q1183K/Q995L/S1033A/S696N/T998S); assay: PIKfyve biochemical assay (ADP-Glo Kinase assay, Carna Biosciences)
full-length human PIKFYVE, sequence (Q9Y2I7 whole entry S696N/L932S/Q995L/T998S/S1033A/Q1183K): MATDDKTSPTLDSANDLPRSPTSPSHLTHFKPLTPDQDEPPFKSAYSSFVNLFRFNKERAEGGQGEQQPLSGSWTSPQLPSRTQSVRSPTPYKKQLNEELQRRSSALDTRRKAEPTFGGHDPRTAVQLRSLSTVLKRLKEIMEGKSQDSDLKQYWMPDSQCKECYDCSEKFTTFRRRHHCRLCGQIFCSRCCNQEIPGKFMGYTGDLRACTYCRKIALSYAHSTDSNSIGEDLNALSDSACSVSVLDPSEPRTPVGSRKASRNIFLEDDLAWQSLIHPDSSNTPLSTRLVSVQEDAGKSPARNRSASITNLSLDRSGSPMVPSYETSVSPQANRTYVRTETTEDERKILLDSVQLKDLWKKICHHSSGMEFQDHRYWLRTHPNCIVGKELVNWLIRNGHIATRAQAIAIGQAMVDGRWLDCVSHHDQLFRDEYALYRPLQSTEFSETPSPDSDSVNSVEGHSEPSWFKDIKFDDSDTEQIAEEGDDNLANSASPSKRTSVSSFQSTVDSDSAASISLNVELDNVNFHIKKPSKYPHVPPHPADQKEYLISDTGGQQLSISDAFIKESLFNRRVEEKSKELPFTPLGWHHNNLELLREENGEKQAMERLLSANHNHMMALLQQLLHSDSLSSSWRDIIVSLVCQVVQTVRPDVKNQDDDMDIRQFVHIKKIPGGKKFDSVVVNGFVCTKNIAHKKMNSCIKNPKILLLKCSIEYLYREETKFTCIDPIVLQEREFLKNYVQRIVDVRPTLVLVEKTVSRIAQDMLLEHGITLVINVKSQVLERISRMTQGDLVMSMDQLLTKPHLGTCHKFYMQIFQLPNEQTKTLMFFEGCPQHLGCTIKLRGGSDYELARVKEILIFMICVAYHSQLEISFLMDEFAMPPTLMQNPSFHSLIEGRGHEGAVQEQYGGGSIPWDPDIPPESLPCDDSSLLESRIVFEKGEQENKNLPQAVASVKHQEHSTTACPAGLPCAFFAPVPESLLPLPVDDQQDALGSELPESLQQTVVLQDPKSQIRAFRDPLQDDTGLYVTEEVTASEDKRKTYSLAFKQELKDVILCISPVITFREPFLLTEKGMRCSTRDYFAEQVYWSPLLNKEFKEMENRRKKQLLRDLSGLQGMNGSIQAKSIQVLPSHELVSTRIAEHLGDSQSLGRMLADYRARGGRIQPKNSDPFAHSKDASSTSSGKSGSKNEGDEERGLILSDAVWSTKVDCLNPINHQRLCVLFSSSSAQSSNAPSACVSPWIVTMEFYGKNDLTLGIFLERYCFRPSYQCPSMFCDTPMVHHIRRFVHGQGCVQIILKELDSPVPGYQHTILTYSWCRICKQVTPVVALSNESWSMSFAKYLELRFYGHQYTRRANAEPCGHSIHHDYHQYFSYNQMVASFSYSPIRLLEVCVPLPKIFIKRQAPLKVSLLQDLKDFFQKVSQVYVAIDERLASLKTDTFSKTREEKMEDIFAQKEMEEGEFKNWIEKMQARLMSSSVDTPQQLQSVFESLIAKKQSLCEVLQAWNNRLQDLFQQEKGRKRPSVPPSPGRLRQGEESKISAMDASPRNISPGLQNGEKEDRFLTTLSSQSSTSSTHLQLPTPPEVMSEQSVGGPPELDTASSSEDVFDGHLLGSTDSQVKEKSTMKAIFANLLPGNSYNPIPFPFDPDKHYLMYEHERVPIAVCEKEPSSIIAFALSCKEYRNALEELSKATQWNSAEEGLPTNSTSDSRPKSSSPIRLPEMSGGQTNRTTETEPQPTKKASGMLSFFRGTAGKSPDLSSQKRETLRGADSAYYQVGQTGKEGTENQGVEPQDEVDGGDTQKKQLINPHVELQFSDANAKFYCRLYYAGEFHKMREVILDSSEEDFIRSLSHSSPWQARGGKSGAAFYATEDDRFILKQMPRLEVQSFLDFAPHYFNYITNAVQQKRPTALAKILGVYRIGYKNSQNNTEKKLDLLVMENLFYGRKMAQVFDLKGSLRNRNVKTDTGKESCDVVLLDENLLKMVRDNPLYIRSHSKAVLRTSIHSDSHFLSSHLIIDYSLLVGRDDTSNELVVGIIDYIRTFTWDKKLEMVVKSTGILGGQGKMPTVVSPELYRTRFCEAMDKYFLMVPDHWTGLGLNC
Method: (§4) PIKfyve Biochemical Assay. The biochemical PIKFyve inhibition assays were run by Carna Biosciences according to proprietary methodology based on the Promega ADP-Glo™ Kinase assay. […] GST-PIKFYVE was purified by using glutathione sepharose chromatography and used in an ADP-Glo™ Kinase assay (Promega). Reactions were set up by adding the test compound solution, substrate solution, ATP solution and kinase solution, each at 4× final concentrations. Reactions were prepared with assay buffer (50 mM MOPS, 1 mM DTT, pH7.2), mixed, and incubated in black 384 well polystyrene plates for 1 hour at room temperature. ADPGlo™ reagent was then added for 40 minutes, followed by kinase detection reagent for an additional 40 minutes. The kinase activity was evaluated by detecting relative light units on a luminescence plate reader. Samples were run in duplicate from 10 μM to 3 nM. […] IC50 values were calculated from concentration vs % inhibition curves by fitting to a four-parameter logistic curve.
as §4, with “The” for “PIKfyve Biochemical Assay. The”, “ADP-Glo™” for “ADPGlo™”, “uM” for “μM”, “curve. […]” for “curve.”

hPIKfyve = hPIKfyve (Homo sapiens (Human), UniProt Q9Y2I7); assay: NanoBRET TE Intracellular Kinase Assay, K-8, in HEK293 cells transfected with PIKFYVE-NanoLuc Fusion Vector; format: cell-based; conditions: 2 hours, tracer displacement, read-out: hPIKfyve BRET IC50
hPIKfyve, sequence (Q9Y2I7 whole entry, the tested form may be a part): as the sequence (Q9Y2I7 whole entry S696N/L932S/Q995L/T998S/S1033A/Q1183K) above, with N696S, S932L, L995Q, S998T, A1033S, K1183Q counted along it
Method: NanoBRET™ TE Intracellular Kinase Assay, K-8 (Promega) Cell-Based Assay. Intracellular inhibition of PIKfyve was assayed using Promega's NanoBRET™ TE Intracellular Kinase Assay, K-8 according to manufacturer's instructions. A dilution series of test compounds was added for 2 hours to HEK293 cells transfected for a minimum of 20 hours with PIKFYVE-NanoLuc® Fusion Vector (Promega) containing a full-length PIKfyve according to manufacturer's specifications in a 96-well plate. Kinase activity was detected by addition of a NanoBRET™ tracer reagent, which was a proprietary PIKfyve inhibitor appended to a fluorescent probe (BRET, bioluminescence resonance energy transfer). Test compounds were tested at concentrations of 10, 3, 1, 0.3, 0.1, 0.03, 0.01, 0.003 μM. BRET signals were measured by a GloMax®Discover Multimode Microplate Reader (Promega) using 0.3 sec/well integration time, 450BP donor filter and 600LP acceptor filters. Active test compounds that bound PIKfyve and displaced the tracer reduced BRET signal. IC50 values were then calculated by fitting the data to the normalized BRET ratio.

[3] = ADP-Glo, GST-PIKFYVE, 10 μM to 3 nM, read-out: hPIKfyve IC50
[4] = values plotted in FIG. 7, read-out: PIKFYVE Biochemistry (IC50)
[5] = ADP-Glo with full-length PIKfyve, read-out: PIKfyve IC50

pIC50 [2, 3]	pIC50 (hPIKfyve)	Structure (SMILES)	pIC50 ([1]; Saccharomyces cerevisiae)	other results
		Cc1cccc(/C=N/Nc2cc(N3CCOCC3)n3nc(-c4ccncc4)cc3n2)c1 [drawing 161]		PIKfyve TDP-43 (active/inactive) [1]: Active; FAB1 TDP-43 (active/inactive) (FAB1 TDP-43 yeast strain): Inactive
7.00 to 8.00	7.00 to 8.00	Cn1c(-c2ccncc2)nc2c(N3CCOCC3)nc(-c3ccnc(-c4ccccc4)n3)nc21 [Compound 1]		
		c1ccc(N2CCc3c(OCc4cccnc4)nc(N4CCOCC4)nc32)cc1	5.57	
		Cn1c(-c2ccncc2)nc2c(N3CCOCC3)ncnc21 [drawing 169]		pIC50 [1]: 5.95; pIC50 [2, 4]: 8.15
		c1ccc(-c2cccc(-c3nc(N4CCOCC4)n4nc(-c5ccncc5)cc4n3)n2)cc1	6.64	pIC50 [2, 4]: 7.85
7.00 to 8.00	7.00 to 8.00	Cn1c(-c2ccncc2)nc2c(N3CCOCC3)nc(-n3ccc(-c4cccc(F)c4)n3)nc21 [Compound 28]		
		Fc1cccc(-c2ccnn2-c2nc(N3CCOCC3)c3ncccc3n2)c1	5.24	pIC50 [2, 4]: < 5.00
7.00 to 8.00	6.00 to 7.00	Cn1c(-c2ccncc2)nc2c(N3CCOCC3)nc(-c3noc(-c4ccccc4)n3)nc21 [Compound 32]		
> 8.00	> 8.00	Cc1cccc(/C=N/Nc2nc(N3CCOCC3)c3nc(-c4ccncc4)[nH]c3n2)c1 [Compound 119]		
		CN(C)c1cc(N2CCOCC2)n2nc(-c3ccncc3)cc2n1		PIKfyve TDP-43 (active/inactive) [1]: Inactive; FAB1 TDP-43 (active/inactive) (FAB1 TDP-43 yeast strain): Inactive
7.00 to 8.00	7.00 to 8.00	c1cc(-c2nc3c(N4CCOCC4)nc(-n4ccc(C5CCOCC5)n4)nc3[nH]2)ccn1 [Compound 6]		
		Cc1cccc(/C=N/Nc2nc(N3CCOCC3)c3nc(-c4ccncc4)n(C)c3n2)c1 [drawing 168]		pIC50 [1]: 5.86; pIC50 [2, 4]: 9.00
		Cc1cccc(/C=N/Nc2cc(N3CC4CC3CO4)n3nc(-c4ccncc4)cc3n2)c1 (centres unmarked)	6.35	pIC50 [2, 4]: 8.52
		c1cc(-c2cc3nc(C4CNC4)nc(N4CCOCC4)n3n2)ccn1	< 4.82	pIC50 [2, 4]: 5.10
		Cc1cccc(/C=N/Nc2cc(N3CCOCC3)nc(OCCc3ccccn3)n2)c1		PIKfyve TDP-43 (active/inactive) [1]: Inactive; FAB1 TDP-43 (active/inactive) (FAB1 TDP-43 yeast strain): Inactive
		Cc1cccc(/C=N/Nc2nc(N3CCOCC3)c3nc(-c4ccncc4)n(C)c3n2)c1 [drawing 177]		pIC50 [1]: 5.33; pIC50 [2, 4]: 8.30
		Cc1cccc(/C=N/Nc2cc(N3CCOCC3)nc(OCCc3ccc(CN)cc3)n2)c1		PIKfyve TDP-43 (active/inactive) [1]: Active; pIC50 [2, 5]: 7.92; FAB1 TDP-43 (active/inactive) (FAB1 TDP-43 yeast strain): Inactive
		Oc1cc(-c2ccccc2)nn1-c1cc(N2CCOCC2)n2nc(-c3ccncc3)nc2n1	6.16	
		Oc1cc(C2CCOCC2)nn1-c1cc(N2CCOCC2)n2nc(-c3ccncc3)cc2n1	5.04	
		N#Cc1cc(N2CCOCC2)n2nc(-c3ccncc3)cc2n1		PIKfyve TDP-43 (active/inactive) [1]: Inactive; pIC50 [2, 5]: < 5.00; FAB1 TDP-43 (active/inactive) (FAB1 TDP-43 yeast strain): Inactive
6.00 to 7.00	5.00 to 6.00	CN1CCC(c2ccn(-c3nc(N4CCOCC4)c4nc(-c5ccncc5)n(C)c4n3)n2)C1 (centres unmarked) [Compound 37]		
		c1ccc(C2CN(c3nc(N4CCOCC4)n4nc(-c5ccncc5)cc4n3)CCN2)cc1 (centres unmarked)	< 4.82	pIC50 [2, 4]: 5.58
7.00 to 8.00	6.00 to 7.00	Cn1c(-c2ccncc2)nc2c(N3CCOCC3)nc(-n3cccn3)nc21 [Compound 47]		
		Cc1cccc(/C=N/Nc2cc(N3CCOCC3)n3nc(-c4ccncc4)cc3n2)c1 [drawing 163]		PIKfyve TDP-43 (active/inactive) [1]: Active; FAB1 TDP-43 (active/inactive) (FAB1 TDP-43 yeast strain): Inactive
		c1ccc(-c2ccnc(-c3cc(N4CCOCC4)nc(OCc4ccncc4)n3)n2)cc1	5.84	
		Cc1cccc(/C=N/Nc2nc(N3CCOCC3)c3ncccc3n2)c1	5.09	

Structure (SMILES)	pIC50 [2, 3]	pIC50 (hPIKfyve)	pIC50 ([1]; Saccharomyces cerevisiae)	other results
Cc1cccc(/C=N/Nc2nc(N3CCOCC3)c3nc(-c4ccncc4)n(C)c3n2)c1 [Compound 52, (E)-4-(9-methyl-2-(2-(3-methylbenzylidene)hydrazineyl)-8-(pyridin-4-yl)-9H-purin-6-yl)morpholine]	> 8.00	> 8.00		
Cc1cccc(/C=N/Nc2nc(N3CCOCC3)c3nc(-c4ccncc4)n(C)c3n2)c1 [Compound 118]	7.00 to 8.00	7.00 to 8.00		
